Some test systems named below: A498; CCRF-CEM; COLO 205; HCT-15; K562; KM12; LOX IMVI; M14; MDA-MB-435; MOLT-4; NCI-H460; OVCAR-3; RPMI-8226; SF-268; SK-MEL-28; SK-MEL-5; SK-OV-3; T47D; TK-10; UACC-62.
Holding throughout (assay): NCI tumour cell line growth inhibition, 48 h

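Step 1: Grow cells in 96-well plates. Step 2: Expose to compound for 48 hours at 5 concentrations. Step 3: Interpolate endpoints linearly; if unreached, use highest concentration. The concentration for 50% growth inhibition is given as GI50.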 The source made the active and inactive calls. Rule as the data show it: active = GI50 up to about 1.1 µM and inactive = higher.

For the molecule `N#Cc1ccc(C2ON=C(c3ccccc3)N2C23CC4CC(CC(C4)C2)C3)cc1` (stereo not given), the GI50 with A498 is > 10 µM (inactive); with CCRF-CEM, > 10 µM (inactive); with COLO 205, > 10 µM (inactive); with HCT-15, greater than 10 µM; in the test with K562, > 10 µM (inactive); in the test on KM12 it was > 10 µM (inactive). The GI50 is > 10 µM (inactive) in the test with LOX IMVI; > 10 µM (inactive) in the test with M14; > 10 µM (inactive) in the test on MDA-MB-435; 9.66 µM (inactive) in the test with MOLT-4; > 10 µM (inactive) in the test with NCI-H460; > 10 µM (inactive) in the test with OVCAR-3. The GI50 is 6.19 µM (inactive) with RPMI-8226; > 10 µM (inactive) in the test on SF-268; > 10 µM (inactive) in the test on SK-MEL-28; > 10 µM (inactive) in the test on SK-MEL-5; > 10 µM (inactive) with SK-OV-3; > 10 µM (inactive) with T47D. Moreover, the GI50 in the test on TK-10 and with UACC-62 was > 10 µM (inactive) throughout.
As for `CCC1C(c2cc(OC)c(OC)c(OC)c2)c2cc3c(cc2OC1N1CCCC1)OCO3` (stereo not given), the GI50 is 3.15 µM (inactive) in the test with A498; 1.16 µM (inactive) with CCRF-CEM; 1.55 µM (inactive) in the test with COLO 205; 0.984 µM with HCT-15; 0.752 µM (active) in the test with K562; 0.743 µM (active) in the test on KM12. Moreover, the GI50 was 2.57 µM (inactive) in the test on LOX IMVI; 1.75 µM (inactive) in the test with M14; 0.277 µM (active) with MDA-MB-435; 1.95 µM (inactive) in the test with MOLT-4; 2.84 µM (inactive) with NCI-H460; 1.45 µM (inactive) in the test on OVCAR-3. Also, the GI50 is 3.05 µM (inactive) in the test with RPMI-8226; 4.58 µM (inactive) in the test on SF-268; 8.87 µM (inactive) with SK-MEL-28; 0.678 µM (active) in the test on SK-MEL-5; 3.42 µM (inactive) in the test with SK-OV-3; 3.78 µM (inactive) with T47D. Besides, the GI50 in the test with TK-10 was 7.91 µM (inactive); with UACC-62, 1.31 µM (inactive).
For the molecule `CC(C)NC(=O)OCc1c(COC(=O)NC(C)C)c(-c2ccc[n+](COC(=O)CC(C)(C)C)c2)n2c1CCC2`, the GI50 is > 100 µM (inactive) in the test with A498; > 100 µM (inactive) with CCRF-CEM; 89.3 µM (inactive) in the test on COLO 205; greater than 100 µM in the test with HCT-15; > 100 µM (inactive) in the test with K562; > 100 µM (inactive) with KM12. In addition, the GI50 in the test with LOX IMVI is 78.3 µM (inactive); in the test with M14 it was > 100 µM (inactive); with MDA-MB-435, > 100 µM (inactive); in the test with MOLT-4 it was > 100 µM (inactive); in the test with NCI-H460, 51.5 µM (inactive); in the test with OVCAR-3, > 100 µM (inactive). Besides, the GI50 is > 100 µM (inactive) in the test with RPMI-8226; 54 µM (inactive) in the test with SF-268; > 100 µM (inactive) in the test on SK-MEL-28; > 100 µM (inactive) with SK-MEL-5; > 100 µM (inactive) with SK-OV-3; > 100 µM (inactive) in the test with T47D. Moreover, the results for the GI50 with TK-10 and in the test on UACC-62 were > 100 µM (inactive) and 39.9 µM (inactive), respectively.
As for `CC(=O)Nc1ccc(C(=O)N[C@@H]2C(=O)N3[C@@H]2SC(C)(C)[C@@H]3C(=O)O)cn1`, the GI50 with A498 is > 100 µM (inactive); with CCRF-CEM, > 100 µM (inactive); in the test on COLO 205, > 100 µM (inactive); in the test on HCT-15, greater than 100 µM; in the test on K562, > 100 µM (inactive); in the test with KM12 it was > 100 µM (inactive). Further, the GI50 with LOX IMVI, with M14, with MDA-MB-435, in the test on MOLT-4, in the test on NCI-H460 and with OVCAR-3 was > 100 µM (inactive) in each case. In addition, the GI50 in the test on RPMI-8226, in the test on SF-268, in the test on SK-MEL-28, in the test on SK-MEL-5, in the test with SK-OV-3 and with T47D was > 100 µM (inactive) throughout. In addition, the GI50 in the test with TK-10 and in the test with UACC-62 was > 100 µM (inactive) each time.
